Experimental data taken from PubChem BioAssay (NCI).
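Step 1: Grow cells in 96-well plates. Step 2: Expose to compound for 48 hours at 5 concentrations. Step 3: Interpolate endpoints linearly; if unreached, use highest concentration. Definition used: TGI = concentration required for complete inhibition of growth.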

Assays:
Experiment in all cases: NCI-60 cell line screen, 48 h
786-0 renal = tested on: 786-0 renal
A549 NSCLC = tested on: A549 NSCLC
ACHN renal = tested on: ACHN renal
BT-549 breast = tested on: BT-549 breast
CAKI-1 renal = tested on: CAKI-1 renal
CCRF-CEM leukemia = tested on: CCRF-CEM leukemia
COLO 205 colon = tested on: COLO 205 colon
DU-145 prostate = tested on: DU-145 prostate
EKVX NSCLC = tested on: EKVX NSCLC
HCC-2998 colon = tested on: HCC-2998 colon
HCT-116 colon = tested on: HCT-116 colon
HCT-15 colon = tested on: HCT-15 colon
HOP-62 NSCLC = tested on: HOP-62 NSCLC
HOP-92 NSCLC = tested on: HOP-92 NSCLC
HT29 colon = tested on: HT29 colon
IGROV1 ovarian = tested on: IGROV1 ovarian
K-562 leukemia = tested on: K-562 leukemia
KM12 colon = tested on: KM12 colon
LOX IMVI melanoma = tested on: LOX IMVI melanoma
M14 melanoma = tested on: M14 melanoma
MALME-3M melanoma = tested on: MALME-3M melanoma
MCF7 breast = tested on: MCF7 breast
MDA-MB-231 breast = tested on: MDA-MB-231 breast
MDA-MB-435 = tested on: MDA-MB-435
MDA-N = tested on: MDA-N
MOLT-4 leukemia = tested on: MOLT-4 leukemia
NCI-H226 lung = tested on: NCI-H226 lung
NCI-H23 lung = tested on: NCI-H23 lung
NCI/ADR-RES ovarian = tested on: NCI/ADR-RES ovarian
OVCAR-5 ovarian = tested on: OVCAR-5 ovarian
OVCAR-8 ovarian = tested on: OVCAR-8 ovarian
PC-3 prostate = tested on: PC-3 prostate
RPMI-8226 leukemia = tested on: RPMI-8226 leukemia
RXF 393 renal = tested on: RXF 393 renal
SF-268 CNS = tested on: SF-268 CNS
SF-295 CNS = tested on: SF-295 CNS
SF-539 CNS = tested on: SF-539 CNS
SK-MEL-2 melanoma = tested on: SK-MEL-2 melanoma
SK-MEL-28 melanoma = tested on: SK-MEL-28 melanoma
SK-MEL-5 melanoma = tested on: SK-MEL-5 melanoma
SK-OV-3 ovarian = tested on: SK-OV-3 ovarian
SN12C renal = tested on: SN12C renal
SNB-75 CNS = tested on: SNB-75 CNS
SW-620 colon = tested on: SW-620 colon
T-47D breast = tested on: T-47D breast
TK-10 renal = tested on: TK-10 renal
U251 CNS = tested on: U251 CNS
UACC-257 melanoma = tested on: UACC-257 melanoma
UACC-62 melanoma = tested on: UACC-62 melanoma
A498 renal = tested on: A498 renal
HL-60(TB) leukemia = tested on: HL-60(TB) leukemia
NCI-H460 lung = tested on: NCI-H460 lung
NCI-H522 lung = tested on: NCI-H522 lung
OVCAR-3 ovarian = tested on: OVCAR-3 ovarian
OVCAR-4 ovarian = tested on: OVCAR-4 ovarian
SNB-19 CNS = tested on: SNB-19 CNS
SR leukemia = tested on: SR leukemia
UO-31 renal = tested on: UO-31 renal

CCOC(=O)COc1cc(-c2ccccc2F)nc2cc3c(cc12)OCO3
TGI (786-0 renal): > 100 µM | TGI (A549 NSCLC): > 100 µM | TGI (ACHN renal): > 100 µM | TGI (BT-549 breast): > 100 µM | TGI (CAKI-1 renal): > 100 µM | TGI (CCRF-CEM leukemia): 55.7 µM | TGI (COLO 205 colon): > 100 µM | TGI (DU-145 prostate): > 100 µM | TGI (EKVX NSCLC): > 100 µM | TGI (HCC-2998 colon): > 100 µM | TGI (HCT-116 colon): > 100 µM | TGI (HCT-15 colon): > 100 µM | TGI (HOP-62 NSCLC): > 100 µM | TGI (HOP-92 NSCLC): 98.8 µM | TGI (HT29 colon): > 100 µM | TGI (IGROV1 ovarian): > 100 µM | TGI (K-562 leukemia): > 100 µM | TGI (KM12 colon): > 100 µM | TGI (LOX IMVI melanoma): > 100 µM | TGI (M14 melanoma): > 100 µM | TGI (MALME-3M melanoma): > 100 µM | TGI (MCF7 breast): > 100 µM | TGI (MDA-MB-231 breast): > 100 µM | TGI (MDA-MB-435): > 100 µM | TGI (MDA-N): > 100 µM | TGI (MOLT-4 leukemia): 84.5 µM | TGI (NCI-H226 lung): > 100 µM | TGI (NCI-H23 lung): > 100 µM | TGI (NCI/ADR-RES ovarian): > 100 µM | TGI (OVCAR-5 ovarian): > 100 µM | TGI (OVCAR-8 ovarian): > 100 µM | TGI (PC-3 prostate): > 100 µM | TGI (RPMI-8226 leukemia): > 100 µM | TGI (RXF 393 renal): > 100 µM | TGI (SF-268 CNS): > 100 µM | TGI (SF-295 CNS): > 100 µM | TGI (SF-539 CNS): > 100 µM | TGI (SK-MEL-2 melanoma): > 100 µM | TGI (SK-MEL-28 melanoma): > 100 µM | TGI (SK-MEL-5 melanoma): > 100 µM | TGI (SK-OV-3 ovarian): > 100 µM | TGI (SN12C renal): > 100 µM | TGI (SNB-75 CNS): > 100 µM | TGI (SW-620 colon): > 100 µM | TGI (T-47D breast): > 100 µM | TGI (TK-10 renal): > 100 µM | TGI (U251 CNS): > 100 µM | TGI (UACC-257 melanoma): > 100 µM | TGI (UACC-62 melanoma): > 100 µM

OCC1NC(COC2OC(CO)C(O)C(O)C2O)C(O)C(O)C1O (stereo not drawn)
TGI (786-0 renal): > 100 µM | TGI (A498 renal): > 100 µM | TGI (A549 NSCLC): > 100 µM | TGI (ACHN renal): > 100 µM | TGI (BT-549 breast): > 100 µM | TGI (CAKI-1 renal): > 100 µM | TGI (CCRF-CEM leukemia): > 100 µM | TGI (COLO 205 colon): > 100 µM | TGI (DU-145 prostate): > 100 µM | TGI (HCC-2998 colon): > 100 µM | TGI (HCT-116 colon): > 100 µM | TGI (HCT-15 colon): > 100 µM | TGI (HL-60(TB) leukemia): > 100 µM | TGI (HOP-92 NSCLC): > 100 µM | TGI (HT29 colon): > 100 µM | TGI (IGROV1 ovarian): > 100 µM | TGI (K-562 leukemia): > 100 µM | TGI (KM12 colon): > 100 µM | TGI (M14 melanoma): > 100 µM | TGI (MALME-3M melanoma): > 100 µM | TGI (MCF7 breast): > 100 µM | TGI (MDA-MB-231 breast): > 100 µM | TGI (MDA-MB-435): > 100 µM | TGI (MDA-N): > 100 µM | TGI (MOLT-4 leukemia): > 100 µM | TGI (NCI-H226 lung): > 100 µM | TGI (NCI-H23 lung): > 100 µM | TGI (NCI-H460 lung): > 100 µM | TGI (NCI-H522 lung): > 100 µM | TGI (NCI/ADR-RES ovarian): > 100 µM | TGI (OVCAR-3 ovarian): > 100 µM | TGI (OVCAR-4 ovarian): > 100 µM | TGI (OVCAR-5 ovarian): > 100 µM | TGI (OVCAR-8 ovarian): > 100 µM | TGI (PC-3 prostate): > 100 µM | TGI (RPMI-8226 leukemia): > 100 µM | TGI (RXF 393 renal): > 100 µM | TGI (SF-268 CNS): > 100 µM | TGI (SF-295 CNS): > 100 µM | TGI (SF-539 CNS): > 100 µM | TGI (SK-MEL-2 melanoma): > 100 µM | TGI (SK-MEL-28 melanoma): > 100 µM | TGI (SK-MEL-5 melanoma): > 100 µM | TGI (SN12C renal): > 100 µM | TGI (SNB-19 CNS): > 100 µM | TGI (SNB-75 CNS): > 100 µM | TGI (SR leukemia): > 100 µM | TGI (SW-620 colon): > 100 µM | TGI (T-47D breast): > 100 µM | TGI (TK-10 renal): > 100 µM | TGI (U251 CNS): > 100 µM | TGI (UACC-257 melanoma): > 100 µM | TGI (UACC-62 melanoma): > 100 µM | TGI (UO-31 renal): > 100 µM
